Legend:
[1] = target: T1, Amine oxidase [flavin-containing] B (Rattus norvegicus, UniProt P19643); assay: Competitive inhibition of Sprague-Dawley rat brain mitochondrial MAO-B using PEA as substrate by Lineweaver-Burk plot analysis
T1 sequence (P19643 whole entry): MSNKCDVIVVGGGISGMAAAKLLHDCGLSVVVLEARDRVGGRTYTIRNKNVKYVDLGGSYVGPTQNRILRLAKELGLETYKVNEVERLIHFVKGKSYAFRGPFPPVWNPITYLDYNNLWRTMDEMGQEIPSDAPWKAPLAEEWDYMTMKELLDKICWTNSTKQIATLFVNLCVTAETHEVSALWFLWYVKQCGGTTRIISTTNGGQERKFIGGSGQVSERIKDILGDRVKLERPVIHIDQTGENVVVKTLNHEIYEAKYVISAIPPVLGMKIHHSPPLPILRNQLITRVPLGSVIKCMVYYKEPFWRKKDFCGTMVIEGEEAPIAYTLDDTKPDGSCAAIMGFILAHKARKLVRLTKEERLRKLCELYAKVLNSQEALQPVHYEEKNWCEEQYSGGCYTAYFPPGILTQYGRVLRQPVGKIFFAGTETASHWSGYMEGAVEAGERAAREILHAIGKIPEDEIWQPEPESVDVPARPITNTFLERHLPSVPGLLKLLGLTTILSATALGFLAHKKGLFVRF

[2] = target: T1, Amine oxidase [flavin-containing] B; assay: Inhibition of Sprague-Dawley rat brain mitochondrial MAO-B using PEA as substrate preincubated for 60 mins; details: read-out: Kieq
Rattus norvegicus = organism: Rattus norvegicus; assay: Selectivity ratio of IC50 for Sprague-Dawley rat brain mitochondrial MAO-A to IC50 for Sprague-Dawley rat brain mitochondrial MAO-B
[3] = target: T1, Amine oxidase [flavin-containing] B; assay: Inhibition of Sprague-Dawley rat brain mitochondrial MAO-B using [14C]-PEA as substrate by radioassay method
[4] = target: T2, Amine oxidase [flavin-containing] A (Rattus norvegicus, UniProt P21396); assay: Inhibition of Sprague-Dawley rat brain mitochondrial MAO-A using [14C]-5-HT as substrate by radioassay method
T2 sequence (P21396 whole entry): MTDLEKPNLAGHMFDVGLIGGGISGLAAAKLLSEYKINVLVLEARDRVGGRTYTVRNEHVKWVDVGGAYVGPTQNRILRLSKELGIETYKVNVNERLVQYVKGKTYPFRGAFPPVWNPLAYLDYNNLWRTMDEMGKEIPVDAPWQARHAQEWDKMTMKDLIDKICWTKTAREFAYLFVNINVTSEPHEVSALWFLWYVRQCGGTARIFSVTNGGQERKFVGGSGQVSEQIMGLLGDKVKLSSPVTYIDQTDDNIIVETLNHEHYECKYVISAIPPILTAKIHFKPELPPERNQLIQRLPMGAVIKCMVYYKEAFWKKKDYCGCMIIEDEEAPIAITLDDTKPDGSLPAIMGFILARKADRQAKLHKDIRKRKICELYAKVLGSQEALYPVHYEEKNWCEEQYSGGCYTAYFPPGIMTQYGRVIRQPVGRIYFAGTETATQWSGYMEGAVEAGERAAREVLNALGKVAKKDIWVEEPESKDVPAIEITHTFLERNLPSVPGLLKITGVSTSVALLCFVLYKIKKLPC

[5] = target: T1, Amine oxidase [flavin-containing] B; assay: Inhibition of Sprague-Dawley rat brain mitochondrial MAO-B using [14C]-PEA as substrate preincubated for 60 mins by radiochemical method
[6] = target: T1, Amine oxidase [flavin-containing] B; assay: Inhibition of Sprague-Dawley rat brain mitochondrial MAO-B using [14C]-PEA as substrate preincubated for 120 mins by radiochemical method

| Ki [1] | Ki [2] | Ratio IC50 (Rattus norvegicus) | IC50 [3] | IC50 [4] | IC50 [5] | IC50 [6] | Compound |
| --- | --- | --- | --- | --- | --- | --- | --- |
| 0.22 µM | 0.0007 µM | > 71400 |  |  |  |  | N#CCCn1nc(-c2ccc(OCc3ccccc3)cc2)oc1=O |
|  |  | 304 | 0.074 µM | 22.5 µM |  |  | N#CCCn1nc(-c2ccc(-c3ccccc3)cc2)oc1=S |
|  |  | > 3200 |  |  |  |  | N#CCCn1nc(-c2ccc(OCc3ccccc3)cc2)oc1=S |
|  |  | > 30400 |  |  | 0.0047 µM | 0.0047 µM | O=c1oc(-c2ccc(OCc3ccccc3)cc2)nn1CCO |
|  |  | 139 | 0.056 µM | 7.8 µM |  |  | N#CCCn1nc(-c2ccc(-c3ccccc3)cc2)oc1=O |

— ChEMBL document CHEMBL4715888, “Synthetic approaches to unsymmetrical 2,5-disubstituted 1,3,4-oxadiazoles and their MAO-B inhibitory activity. A review” (Bioorg Med Chem, 2021)
